This note sets out measurements from article PMC8268181, “Pharmacokinetic evaluation of Chalcone derivatives with antimalarial activity in New Zealand White Rabbits” (BMC Research Notes, 2021).

A short description of the series: In vivo pharmacokinetic study, single intraperitoneal/oral dose, plasma concentration by RP-HPLC. Set-up: species or system New Zealand White rabbits. Conditions: for C0 / AUC(0-t) / half-life / Tmax / Cmax: both sexes, New Zealand White, plasma; for C0: read-out: C0 (concentration of administrated drug at time zero); for AUC(0-t): linear trapezoidal method, read-out: AUC0–48 (area under the total plasma concentration–time curve); for half-life: read-out: t1/2 (elimination half-life) (converted); for Tmax: rabbit, read-out: tmax (time to reach the peak plasma concentration); for Cmax: read-out: Cmax (peak plasma concentration); for increased bioavailability as compared to in vitro concentration: in vitro concentration from ref 15; for bioavailability (in words): single dose, derivative 1 intraperitoneal, derivatives 2 and 3 oral. The text has this: The ten healthy adult New Zealand White rabbits weighing between 1.75–2.75 kg of either sex were procured from the institute Advanced Facility for Small Animal Research, PGIMER Chandigarh, after approval from the Institutional Animal Ethics Committee Ref. No. 69/IAEC/418 as per the Committee for the Purpose of Control and Supervision of Experiments on Animals (CPCSEA) guidelines. The animals were housed in polypropylene cages under standard laboratory conditions at controlled temperature (25 ± °C) and 12-h light/dark cycles until the end of the experimental period. Animals were given free access to diet and water in a room and were fasten for at least 12 h prior to experiment. To achieve meaningful statistical results, we used a minimally sufficient number of animals in all cases. A fifteen-days washout period was carried out, which allows animals to completely recover and clear off the administered derivatives.
A total of ten healthy adult New Zealand White rabbits were divided into three groups; (i) derivative 1 treated group, (ii) derivative 2 treated group, and (iii) derivative 3 treated group. The whole experiment was performed in two batches with each batches containing n = 3 animals per group. The second batch with same groups were repeated after giving fifteen-days washout period which helps animals to recover and clear off previous administered derivatives. The three chalcone derivatives were administered at effective dose concentration [dose extrapolated from in vitro study, [15] as per OECD GLP compliance. A single dose of each chalcone derivatives 1, 2 & 3 (suspended in 0.5% carboxymethyl cellulose) were administered to each animal in the early morning at 7:00 am, which was noted as 0 h and then blood samples (1 mL) of animals were collected at specific time intervals of 0, 0.25 h, 0.5 h, 1 h, 2 h, 4 h, 6 h, 8 h, 12 h, 24 h, 36 h, 48 h from marginal ear vein in heparin containing vials. These derivatives were either administered orally through orogastric tube or intraperitoneally. All blood samples were collected from the marginal ear vein after topical anaesthesia with 4% lignocaine solution. No euthanasia procedure was required during the study, and after completion of experiments all animals were kept in rehabilitation centre according to CPCSEA guidelines, in the institute Advanced Facility for Small Animal Research, PGIMER, Chandigarh. Plasma samples for the determination of drug concentration were prepared for RP-HPLC analysis.
Rabbit blood samples were accumulated in heparin contained dry evacuated tubes from marginal ear veins of healthy rabbits as per the standard operating procedure. These samples were centrifuged within 1 h of collection, for segregation of plasma at 1500 rpm for 10 min. The segregated plasma was preserved at […] till assay. Prior experimental analysis the deproteinization of the plasma samples was done in the mixture of methanol and water (90:10 v/v), then vortexed for at least 10–15 min, after while centrifuged for at least 15 min at 6000 rpm, and finally supernatants were pipette-out in a new vial. The supernatants were then spiked with the measured volume of diluted stock solutions of chalcone making up to final concentrations of 10–100 μg/mL.
Each sample has been collected from rabbits at a different time interval and plasma was separated and either processed for assay procedure or stored at – 20 °C in deep freezer till experiment. On the day of the experiment, 100 µL of plasma from each vial was transferred to another and mixed with 100 µL of acetonitrile (HPLC analytical Grade). Then was kept for 5 min at room temperature and then centrifuged at 7000 rpm for 10 min. Supernatant was separated and reconstituted with the mobile phase and finally sterile filter with 0.22 µm membrane filter before the assay procedure.
Chromatographic separation was achieved as mentioned earlier with slight modification. […]

Where [1] appears, read: 3.64 mg/kg, derivative 3, single oral dose 5.46 mg/1.5 kg rabbit, mean ± SEM, n = 6.
Where [2] appears, read: ip, derivative 1, single intraperitoneal dose 5.46 mg/1.5 kg rabbit, mean ± SEM, n = 6.
The mark [3] stands for this setting: 4.85 mg/kg, derivative 2, single oral dose 7.28 mg/1.5 kg rabbit, mean ± SEM, n = 5.
The mark [4] stands for this setting: derivative 2, single oral dose 7.28 mg/1.5 kg rabbit (4.85 mg/kg), mean ± SEM, n = 5.

Molecules are shown by their SMILES. “Also recorded” adds a separate entry of the source. Where two headings read alike, the source gives them in different places.

Take `COc1ccc(/C=C/C(=O)c2cc(OC)c(OC)c(OC)c2)cc1OC` [Derivative 3, (E)-1-(3,4,5-Trimethoxyphenyl)-3-(3,4-dimethoxyphenyl)prop-2-en-1-one]: the “bioavailability (in words)” value is “poor bioavailability; also recorded: very low bioavailability”. Under setting [1], the C0 stood at 944 ± 7 ng/mL, the AUC(0-t) worked out at 14.2 ± 3.78 µg·h/mL and the half-life was 798 ± 100 min. Moreover, the Tmax (po, 3.64 mg/kg, derivative 3, single oral dose 5.46 mg/1.5 kg rabbit (3.64 mg/kg), mean ± SEM, n = 6) worked out at 2.83 ± 0.87 h. Also, where the note is “derivative 3, single oral dose 5.46 mg/1.5 kg rabbit (3.64 mg/kg), mean ± SEM, n = 6”, the Cmax was determined as 3740 ± 1640 ng/mL. Further, the “increased bioavailability as compared to in vitro concentration” value (from here on “increased bioavailability”) (compound 3, single oral dose) was 25 fold. Under “derivative 3, single 3.64 mg/kg oral dose”, the “mean CL” value is 0.53 ± 0.10 L/h. In addition, under “derivative 3, single oral dose”, the “kinetics of metabolism / elimination phase (in words)” value is “first order kinetics”. Further, the “Vd (volume of distribution)” value (derivative 3, single oral dose 5.46 mg/1.5 kg rabbit, mean ± SEM, n = 6) was 9.12 ± 0.73 L.

Regarding `COc1ccc(/C=C/C(=O)c2cc(OC)ccc2OC)cc1` [Derivative 1, (E)-1-(2,5-Dimethoxyphenyl)-3-(4-methoxyphenyl)prop-2-en-1-one], the “bioavailability (in words)” value is reported as “very low bioavailability”. Moreover, under “ip, derivative 1, single intraperitoneal dose 5.46 mg/1.5 kg rabbit (text: 3.84 mg/kg), mean ± SEM, n = 6”, the Cmax worked out at 1960 ± 460 ng/mL. Further, under setting [2], the C0 came out at 966 ± 25 ng/mL, the AUC(0-t) was found to be 2.94 ± 0.83 µg·h/mL and the half-life is 756 ± 125 min. Besides, the Tmax (ip, 5.46 mg/1.5 kg rabbit, derivative 1, single intraperitoneal dose 5.46 mg/1.5 kg rabbit (text: 3.84 mg/kg), mean ± SEM, n = 6) was found to be 0.33 ± 0.05 h. Further, the “increased bioavailability” value (compound 1, single intraperitoneal dose) is “three fold”. For the same molecule, under “derivative 1, after IP administration”, the “first blood sampling time at which derivative was spotted in plasma” value was found to be 15 min. In addition, under “derivative 1, single 3.84 mg/kg intraperitoneal dose”, the “mean CL” value is 0.28 ± 0.08 L/h. The “Vd (volume of distribution)” value (derivative 1, single intraperitoneal dose 5.46 mg/1.5 kg rabbit, mean ± SEM, n = 6) is 7.31 ± 0.29 L.

For `COc1ccc(/C=C/C(=O)c2cc(OC)c(OC)c(OC)c2)cc1` [Derivative 2, (E)-(3,4,5-Trimethoxyphenyl)-3-(4-methoxyphenyl)prop-2-en-1-one], under setting [3], the C0 was determined as 986 ± 4 ng/mL, the AUC(0-t) was 3760 ± 739 µg·h/mL and the half-life is 5600 ± 1960 min. Besides, the Tmax (po, 4.85 mg/kg, derivative 2, single oral dose 7.28 mg/1.5 kg rabbit (4.85 mg/kg), mean ± SEM, n = 5) was 3.84 h. In addition, under setting [4], the Cmax was 69900 ± 5490 ng/mL and the “tmax (time to reach the peak plasma concentration)” value is given as 3.4 ± 0.79 h. The “increased bioavailability” value (compound 2, single oral dose) is reported as “tenfold”. In addition, the “mean CL” value (derivative 2, single 4.85 mg/kg oral dose) stood at 0.15 ± 0.05 L/h. Further, where the note is “derivative 2, single oral administration, compared to other two chalcone derivatives”, the “systemic exposure (in words)” value is on record as “comparatively better systemic exposure”. For the same molecule, the “time the peak concentration remained constant” value (derivative 2, single oral dose 4.85 mg/kg) is 3 to 4 h. In addition, for the setting “derivative 2, single oral dose 7.28 mg/1.5 kg rabbit, mean ± SEM, n = 5”, the “Vd (volume of distribution)” value came to 10.72 ± 0.66 L.
